Source: patent US9248148B2, “Mono (iron hydroxypyrone) and combination (iron hydroxypyrone and GI inflammation inhibiting agents) compositions for anaemia or H. pylori infections” (Iron Therapeutics Holdings AG, priority 2008, dated 2016)

Tested on: anaemia due to blood loss
Assay: Patient 1: anaemia after surgical blood loss, treated while continuing Gaviscon (acid reducer)
Description: The patient had been taking Gaviscon™ which contains potassium bicarbonate as an acid reducer to reduce acid reflux. […] They continued to take Gaviscon™ but was also given ferrous sulphate tablets for their anaemia.

## O=S(=O)([O-])[O-].[Fe+2] [ferrous sulphate]
Patient 1, continuing Gaviscon (potassium bicarbonate)
  correction of anaemia: failed to correct their anaemia
Patient 1, continuing Gaviscon, maltol and ferrous gluconate at 45 mg/day
  tolerability / side effects: serious side effects of gastric intolerance and severe headaches
